Measurements reported in patent US20260048101A1, “GLP-1R ANTAGONISM TO IMPROVE NUTRITION FOLLOWING GASTROINTESTINAL SURGERY” (Amylyx Pharmaceuticals, Inc., priority 2023, published 2026).

Tested on: Patient 2 (total gastrectomy, severe hypoglycemia events)
Assay: Patient 2 case history: prior pharmacotherapy
Type: in vivo, human
Details: Patient 2, before trial participation
Text: The patient had been placed on a liquid diet for 6 weeks after surgery and had initially lost 20 lbs. but otherwise fared well in the immediate postoperative period. […] The meals caused pain, gastrointestinal symptoms, and frequent diarrhea (per patient report). The patient also complained of weakness, lethargy and general feeling of despondency. […] They began to experience severe hypoglycemia events, including multiple episodes of loss of consciousness with requirement for emergency medical assistance. […] The patient was referred for trial participation.

Q: How did the gastrointestinal symptoms turn out when C[C@H]1O[C@H](O[C@H]2[C@H](O)[C@@H](O)[C@@H](O[C@H]3[C@H](O)[C@@H](O)C(O)O[C@@H]3CO)O[C@@H]2CO)[C@H](O)[C@@H](O)[C@@H]1N[C@H]1C=C(CO)[C@@H](O)[C@H](O)[C@H]1O (stereo partly shown) [acarbose] was run?
A: The gastrointestinal symptoms was “worsening of gastrointestinal symptoms”.
